From PubChem BioAssay (NCI)
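Tested at 5 concentrations; 48 h exposure; 96-well plates; endpoints linearly interpolated, else capped at highest concentration. TGI: concentration producing complete growth inhibition.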

What was measured:
Assay in all cases: NCI tumour cell line growth inhibition, 48 h
786-0 renal = system: 786-0 renal
A498 renal = system: A498 renal
A549 NSCLC = system: A549 NSCLC
ACHN renal = system: ACHN renal
BT-549 breast = system: BT-549 breast
CAKI-1 renal = system: CAKI-1 renal
CCRF-CEM leukemia = system: CCRF-CEM leukemia
COLO 205 colon = system: COLO 205 colon
DU-145 prostate = system: DU-145 prostate
EKVX NSCLC = system: EKVX NSCLC
HCT-116 colon = system: HCT-116 colon
HCT-15 colon = system: HCT-15 colon
HL-60(TB) leukemia = system: HL-60(TB) leukemia
HOP-62 NSCLC = system: HOP-62 NSCLC
HOP-92 NSCLC = system: HOP-92 NSCLC
HS 578T breast = system: HS 578T breast
HT29 colon = system: HT29 colon
IGROV1 ovarian = system: IGROV1 ovarian
K-562 leukemia = system: K-562 leukemia
KM12 colon = system: KM12 colon
LOX IMVI melanoma = system: LOX IMVI melanoma
MDA-MB-231 breast = system: MDA-MB-231 breast
MDA-MB-435 = system: MDA-MB-435
MDA-N = system: MDA-N
MOLT-4 leukemia = system: MOLT-4 leukemia
NCI-H226 lung = system: NCI-H226 lung
NCI-H23 lung = system: NCI-H23 lung
NCI/ADR-RES ovarian = system: NCI/ADR-RES ovarian
OVCAR-3 ovarian = system: OVCAR-3 ovarian
OVCAR-4 ovarian = system: OVCAR-4 ovarian
OVCAR-8 ovarian = system: OVCAR-8 ovarian
PC-3 prostate = system: PC-3 prostate
RPMI-8226 leukemia = system: RPMI-8226 leukemia
RXF 393 renal = system: RXF 393 renal
SF-268 CNS = system: SF-268 CNS
SF-295 CNS = system: SF-295 CNS
SK-MEL-28 melanoma = system: SK-MEL-28 melanoma
SK-MEL-5 melanoma = system: SK-MEL-5 melanoma
SK-OV-3 ovarian = system: SK-OV-3 ovarian
SN12C renal = system: SN12C renal
SNB-19 CNS = system: SNB-19 CNS
SNB-75 CNS = system: SNB-75 CNS
SR leukemia = system: SR leukemia
SW-620 colon = system: SW-620 colon
T-47D breast = system: T-47D breast
TK-10 renal = system: TK-10 renal
U251 CNS = system: U251 CNS
UACC-257 melanoma = system: UACC-257 melanoma
UACC-62 melanoma = system: UACC-62 melanoma
UO-31 renal = system: UO-31 renal
HCC-2998 colon = system: HCC-2998 colon
M14 melanoma = system: M14 melanoma
MALME-3M melanoma = system: MALME-3M melanoma
MCF7 breast = system: MCF7 breast
NCI-H460 lung = system: NCI-H460 lung
OVCAR-5 ovarian = system: OVCAR-5 ovarian
SF-539 CNS = system: SF-539 CNS
SK-MEL-2 melanoma = system: SK-MEL-2 melanoma

In the case of `O=C1c2ccccc2C2(c3ccc(Cl)cc3)N[C@H]3CCCC[C@@H]3N12` (stereo partly specified), the TGI (786-0 renal) is reported as > 100 µM, the TGI (A498 renal) is reported as > 100 µM and the TGI (A549 NSCLC) is reported as > 100 µM. The TGI (ACHN renal) was > 100 µM, the TGI (BT-549 breast) was > 100 µM and the TGI (CAKI-1 renal) was > 100 µM. For the same compound, the TGI (CCRF-CEM leukemia) was > 100 µM, the TGI (COLO 205 colon) was > 100 µM and the TGI (DU-145 prostate) was > 100 µM. The TGI (EKVX NSCLC) was > 100 µM, the TGI (HCT-116 colon) was > 100 µM and the TGI (HCT-15 colon) was > 100 µM. For the same compound, the TGI (HL-60(TB) leukemia) was > 100 µM, the TGI (HOP-62 NSCLC) was > 100 µM and the TGI (HOP-92 NSCLC) was > 100 µM. The TGI (HS 578T breast) was > 100 µM, the TGI (HT29 colon) was > 100 µM and the TGI (IGROV1 ovarian) was > 100 µM. For the same compound, the TGI (K-562 leukemia) was > 100 µM, the TGI (KM12 colon) was > 100 µM and the TGI (LOX IMVI melanoma) was > 100 µM. For the same compound, the TGI (MDA-MB-231 breast) was > 100 µM, the TGI (MDA-MB-435) was > 100 µM and the TGI (MDA-N) was > 100 µM. For the same compound, the TGI (MOLT-4 leukemia) was > 100 µM, the TGI (NCI-H226 lung) was > 100 µM and the TGI (NCI-H23 lung) was > 100 µM. For the same compound, the TGI (NCI/ADR-RES ovarian) was > 100 µM, the TGI (OVCAR-3 ovarian) was > 100 µM and the TGI (OVCAR-4 ovarian) was > 100 µM. The TGI (OVCAR-8 ovarian) was > 100 µM, the TGI (PC-3 prostate) was > 100 µM and the TGI (RPMI-8226 leukemia) was > 100 µM. The TGI (RXF 393 renal) was > 100 µM, the TGI (SF-268 CNS) was > 100 µM and the TGI (SF-295 CNS) was > 100 µM. The TGI (SK-MEL-28 melanoma) was > 100 µM, the TGI (SK-MEL-5 melanoma) was > 100 µM and the TGI (SK-OV-3 ovarian) was > 100 µM. The TGI (SN12C renal) was > 100 µM, the TGI (SNB-19 CNS) was > 100 µM and the TGI (SNB-75 CNS) was > 100 µM. For the same compound, the TGI (SR leukemia) was > 100 µM, the TGI (SW-620 colon) was > 100 µM and the TGI (T-47D breast) was > 100 µM. For the same compound, the TGI (TK-10 renal) was > 100 µM, the TGI (U251 CNS) was > 100 µM and the TGI (UACC-257 melanoma) was > 100 µM. The TGI (UACC-62 melanoma) was > 100 µM and the TGI (UO-31 renal) was > 100 µM.
For `CC(C)NC(=O)OCCN=c1c2ccccc2ccc2ccccc12`, the TGI (786-0 renal) was > 100 µM, the TGI (A549 NSCLC) was > 100 µM and the TGI (ACHN renal) was > 100 µM. The TGI (BT-549 breast) was > 100 µM, the TGI (CAKI-1 renal) was > 100 µM and the TGI (CCRF-CEM leukemia) was 62.5 µM. For the same compound, the TGI (COLO 205 colon) was > 100 µM, the TGI (DU-145 prostate) was > 100 µM and the TGI (EKVX NSCLC) was > 100 µM. The TGI (HCC-2998 colon) was > 100 µM, the TGI (HCT-116 colon) was > 100 µM and the TGI (HCT-15 colon) was > 100 µM. For the same compound, the TGI (HL-60(TB) leukemia) was 43.9 µM, the TGI (HOP-62 NSCLC) was > 100 µM and the TGI (HOP-92 NSCLC) was 88 µM. For the same compound, the TGI (HS 578T breast) was > 100 µM, the TGI (HT29 colon) was > 100 µM and the TGI (IGROV1 ovarian) was > 100 µM. The TGI (K-562 leukemia) was > 100 µM, the TGI (KM12 colon) was > 100 µM and the TGI (LOX IMVI melanoma) was > 100 µM. For the same compound, the TGI (M14 melanoma) was > 100 µM, the TGI (MALME-3M melanoma) was > 100 µM and the TGI (MCF7 breast) was > 100 µM. For the same compound, the TGI (MDA-MB-231 breast) was > 100 µM, the TGI (MDA-MB-435) was > 100 µM and the TGI (MDA-N) was > 100 µM. The TGI (MOLT-4 leukemia) was 71.2 µM, the TGI (NCI-H226 lung) was > 100 µM and the TGI (NCI-H23 lung) was > 100 µM. For the same compound, the TGI (NCI-H460 lung) was > 100 µM, the TGI (NCI/ADR-RES ovarian) was > 100 µM and the TGI (OVCAR-3 ovarian) was 95.6 µM. For the same compound, the TGI (OVCAR-4 ovarian) was > 100 µM, the TGI (OVCAR-5 ovarian) was > 100 µM and the TGI (OVCAR-8 ovarian) was > 100 µM. For the same compound, the TGI (PC-3 prostate) was 72.5 µM, the TGI (RXF 393 renal) was > 100 µM and the TGI (SF-268 CNS) was > 100 µM. The TGI (SF-295 CNS) was > 100 µM, the TGI (SF-539 CNS) was > 100 µM and the TGI (SK-MEL-2 melanoma) was 73.4 µM. For the same compound, the TGI (SK-MEL-28 melanoma) was > 100 µM, the TGI (SK-MEL-5 melanoma) was 35.8 µM and the TGI (SK-OV-3 ovarian) was > 100 µM. The TGI (SN12C renal) was > 100 µM, the TGI (SNB-19 CNS) was > 100 µM and the TGI (SNB-75 CNS) was > 100 µM. For the same compound, the TGI (SR leukemia) was 80.6 µM, the TGI (SW-620 colon) was > 100 µM and the TGI (T-47D breast) was 67.6 µM. The TGI (TK-10 renal) was > 100 µM, the TGI (U251 CNS) was > 100 µM and the TGI (UACC-257 melanoma) was > 100 µM. The TGI (UACC-62 melanoma) was > 100 µM and the TGI (UO-31 renal) was 64.4 µM.
